Assay results as given in patent US7769423B2 (Duke University, priority 2002, dated 2010).

Assays:
[1] = cited from earlier work
[2] = at physiological temperatures; Unger 1993; cited from earlier work
[3] = tested on: fibrosarcomas implanted in the flank of Fisher 344 rats; assay: In vivo MRI signal enhancement and signal intensity ratio (SIR) in rats bearing flank fibrosarcomas, catheter hyperthermia
Procedure: Fibrosarcocomas were transplanted in the flank of fisher 344 rats and allowed to grow to 17-19 mm in diameter. Rats were anesthetized with pentobarbital (source/amount) and a 16 gauge catheter was placed through the center of the tumor. Heated water (56° C., 1.8 ml/s) was passed through the catheter to provided hyperthermia. During MRI scans, the heating water was doped with 0.25 M MnSO4 to prevent flow image artifacts. Gradient recalled echo was used with a Tr of 23 ms, Te of 1.4 ms, and flip angles of 5, 15, 30, 40, 50, 60 degrees for the initial T1 weighted image. Subsequent drug uptake scans were performed at a flip angle of 33°. 3D volume images, 12 slices 1 mm thick, were taken with a field of view of 6 cm with a pixel size of 234×234 μm. Four and signal image averaging was used for liposome and Gd-DTPA experiments yielding scan times of 1 min, 45 sec and 30 sec respectively.
1NEX image averaging was used for the first twenty minutes of liposome or Gd uptake. Subsequent images were taken at 4NEX for the remainder of the experiment (90-120 minutes).
The liposome formulations were studied in fibrosarcomas implanted in the flank of Fisher 344 rats. The center of the tumor was heated using a catheter through which hot was water circulated. […] Liposomes were then administered intravenously, followed by MR imaging.
In vivo drug relative concentrations were performed by signal intensity image analysis over regions of interest (ROI) within heated tumors. The white boxes present in FIGS. 2A, 2B and 2C indicate these ROIs. […] Muscle in the non-tumor bearing leg of the animal was used as a non-heated, normal tissue control.

[4] = In vitro MRI T1 relaxivity measurements as a function of temperature and concentration; assay type: physicochemical; conditions: linear regression, in vitro samples, 2-T magnet
Procedure: Three control stock solutions of manganese sulfate (MnSO4.H2O), free DOX and MnSO4.H2O in a molar ratio of 0.902:1 (DOX:Mn), and MnSO4.H2O with thermally sensitive liposomes that were formed without the presence of MnSO4.H2O. These solutions, along with liposome solutions, were then diluted to concentrations from 0.25-8 mM. The solutions were placed in […] NMR tubes cut to a three-inch length.
All MRI experiments were performed at the Center for In vivo Microscopy at Duke University in a 2-T 30-cm bore diameter magnet (Signa, G.E. Medical Systems, Milwaukee, Wis.). […] Each experiment had six to eight sample tubes, which were contained within an exposed sample holder, and placed inside a 3.81 cm birdcage coil providing RF excitation. […]
Images that were obtained were analyzed by selecting a region of interest and measuring average intensity for each sample dilution. […]
To quantify the concentration of drug in vivo using MRI, in vitro experiments were performed to determine the concentration- and temperature-dependence of T1 shortening. These experiments measured signal intensity resulting from proton spin realignment to the bulk magnetic field after excitation from repetitive radio frequency pulses. […] MnSO4 liposome-DOX formulation measured over a range of drug concentrations (T=29.9° C.). […]

fibrosarcoma (FSA-1) = assay: Antitumor effect: time for tumors to reach five times the volume on the day of treatment; assay type: in vivo, rat
Procedure: Tumor model. […] The fibrosarcoma was transplanted subcutaneously in the flanks of 8-week-old female Fischer 344 rats (Charles River Laboratories, Wilmington, Mass., U.S.A.) under anesthesia using intraperitoneal ketamine (9 mg/kg body weight) and xylazine (10 mg/kg body weight). Tumors were allowed to grow for approximately 2 weeks to a diameter of 10-12 mm before treatment.
Each group of rats (except the control group) received an equivalent dose of 5 mg doxorubicin/kg body weight by intravenous injection and/or 1 hour of hyperthermia. Local hyperthermia was delivered by means of an 18-gauge catheter that was placed through the center of the tumor and through which heated water (˜50° C., 1.8 mL/s) was passed.
The remaining 6-7 rats in each treatment group were included in the survival analysis. […] Final images were taken after tumors cooled to room temperature. […] After therapy, the rats were monitored as they recovered from anesthesia. Tumor volumes were measured three times per week for 60 days or until the tumor volume reached five times the volume on the day of treatment. At these endpoints, the rats were killed by carbon dioxide asphyxiation. […] The five-times-the-initial-volume cutpoint was chosen based on guidelines from the institutional animal care and use committee. No rats were killed before the specified endpoints were reached.
Descriptive summary statistics are expressed as mean values with 95% confidence intervals, except for the time-to-five-times-tumor-volume data, which are expressed as median values with 95% confidence intervals. To avoid assuming a normal distribution, nonparametric or semi-parametric statistical methods were used. Group comparisons were conducted with the Kruskal-Wallis test for more than two groups and the Wilcoxon test for between-group differences. For the antitumor efficacy data, the primary endpoint (time to reach five times the original tumor volume) was analyzed by the Kaplan-Meier product-limit method, using the Wilcoxon rank test for between-group differences. […]

SMILES: O=C([O-])CN(CCN(CC(=O)[O-])CC(=O)[O-])CCN(CC(=O)[O-])CC(=O)[O-].[Gd+3] [Gd-DTPA]
- fraction excreted in urine ([1]; in about 6 hours): 83%±14%
- mean elimination half-life ([1]; in vivo): about 0.2±0.13 hours
- relaxivity [2]: approximately 44.5 (mM·sec·° C.)^−1
- time to reach SIR plateau in tumor-enhancing region ([3]; enhanced tumor region): ≤ 10 min
- femoral vessel SIR value reached ([3]; femoral vein, normalized to non-heated muscle): 2.0
- time at which femoral vessel SIR value was reached ([3]; femoral vein, post injection): 10 min
- MR signal enhancement pattern ([3]; without hyperthermia (HT)): Enhancement occurs in all tissues with a high degree of non-uniformity in the tumor

SMILES: O=S(=O)([O-])[O-].[Mn+2] [MnSO4, manganese sulfate]
- intercept of relaxivity as a function of temperature (intercept±S.E.) [4]: 7.28 ± 0.12 mM/s
- slope of relaxivity as a function of temperature (slope±S.E.) [4]: −0.082±0.003 (mM·sec·° C.)^−1

SMILES: COc1cccc2c1C(=O)c1c(O)c3c(c(O)c1C2=O)C[C@@](O)(C(=O)CO)C[C@@H]3O[C@H]1C[C@H](N)[C@H](O)[C@H](C)O1 [free doxorubicin, doxorubicin]
- tumor growth time / growth delay (fibrosarcoma (FSA-1); alone, without hyperthermia): statistically significantly longer tumor growth times than the saline control
- complete tumor regression upon censoring at 60 days (fibrosarcoma (FSA-1); during / plus hyperthermia): one of the six rats
- tumor growth time / growth delay (fibrosarcoma (FSA-1); with hyperthermia): statistically significantly longer tumor growth times than the saline control
